Assay results reported in publication PMC8225959, “Clickable Radiocomplexes With Trivalent Radiometals for Cancer Theranostics: In vitro and in vivo Studies” (Frontiers in Medicine, 2021).

What was measured:
in vivo [1] = conditions: male, NodCB17 SCID, mouse, iv, 0.061 nmol, total radioactivity
Source text: Searching for a preliminary proof of concept of the intended pre-targeting approach, we synthesized a clickable TCO-containing bombesin antagonist (TCO-PEG4-AR) based on the potent GRPr antagonist AR reported in the literature, as described in the Supplementary Material ([29]). We hypothesized that the antagonist, when bound to the surface of human PC3 cells, would be available for the in vivo click reaction with the Tz-containing radiocomplex. As a control, the biodistribution data of the preformed [^90Y]Y-DOTA-Tz-TCO-PEG4-AR in PC3-xenografts bearing mice at 15 min and 1 h p.i. are available in Supplementary Table 5. For the pre-targeting approach, the tumor-bearing mice were injected with 1 nmol of the clickable bombesin antagonist and, after 4 h, we injected the radiocomplex [^90Y]Y-DOTA-Tz. […] In parallel, pre-targeting experiments based on ex-vivo biodistribution studies were performed in the same way for the congener [^111In]In-DOTA-Tz, and using the same animal model. […]
(§1) from whole animal body. Blood samples were taken by cardiac puncture at sacrifice. Tissue samples of the main organs were then dissected, weighted and counted in a gamma counter (Berthold).
(§2) Biodistribution results were expressed as percentage of the injected dose per gram tissue (%I.D./g) in the form of an average with standard deviation (%ID/g; mean ± standard deviation (SD).
(§3) Biodistribution in PC3 bearing mice
(§4) Male, 5-6 weeks old NodCB17 SCID mice were obtained from Janvier Lab., France. Mice were housed under pathogen-free conditions with food and water ad libitum, and a 12-12 hour light-dark cycle.
(§5) Veterinarian staff and investigators observed the mice daily to ensure animal welfare and determine if human endpoints (e.g., hunched and ruffled appearance, apathy, ulceration, severe weight loss, tumour burden) were reached. The mice were subcutaneously injected in the shoulder with 200 µL bolus containing a suspension of […] freshly harvested human prostatic cell line PC3 in Matrigel™ Basement Membrane Matrix (BD Sciences) under anaesthesia with 2% isoflurane. The animals were kept under pathogen-free condition and experiments were performed 2–3 weeks later when a tumour reached a volume of approximate 390 ± 190 mm3. Animals were allocated into treatment groups using a complete […]
(§6) The examination of physiological distribution for [90Y]Y-DOTA-Tz were carried out on 4 mice (n = 4). For the control bolus, 0.061 nmol, 0.1 mL, 7.5 µCi of [90Y]Y-DOTA-Tz was intravenously injected by tail vein. The examination of physiological distribution for [90Y]Y-DOTA-Tz-TCO-PEG4-AR were carried out on groups of 8 mice (n = 4). For the control bolus, 0.061 nmo l, 0.1 mL, 7.5 µCi of 90Y-DOTA-Tz TCO-PEG4-AR was intravenously injected by tail vein. At appropriate time points (15 min, 1h or 2h after-injection), the animals were euthanized, tissues of interest were dissected, weighted, and […]

in vivo [2] = conditions: male, NodCB17 SCID, mouse, iv, total radioactivity
Source text: as §1, §2, §3, §4, §5
as §6, with “and their radioactivity was measured using NaI gamma counter supplied with adapter for the whole-body” for “and”
Biodistribution of 111In-DOTA-Tz-TCO-PEG4-AR was performed by intravenous injection of 100 µL (50 – 75 µCi) of the preparation into mice (n =4) via the tail vein. Immediately after injection, radioactive dosage administered into each animal was measured in a dose calibrator (Capintec CRC25R). For the in vivo click chemistry studies in the same PC3 xenografts (n=3), a bolus of 1 nmol of TCO-PEG4-AR, dissolved in 0.1 mL of saline, was injected in the tail vein, and after 4h the [111In]In-DOTA-Tz (0.1mL, 50 – 75 µCi µCi). After 1 h of administration of the radioactive preparations, the mice groups were sacrificed by cervical dislocation and the radioactivity in the sacrificed animal was measured. The difference between the radioactivity in the injected and the sacrificed animal was assumed to be due to total excretion. The animals were weighed and dissected. Then, tissues of interest were removed, weighed and counted in a γ-counter (Berthold, LB211, Germany).
For all the performed biodistribution studies, selected organs and tissues were assayed for their radioactivity and weighted. The physiological distribution was then calculated and expressed in terms of the percentage of the administrated radioactivity found in each of the selected organs or tissues per gram (%ID/g) in the form of an average with standard deviation (%ID/g; mean ± standard deviation
(1 picture or pasted object on this page, not shown here)

[3] = Biodistribution of [111In]In-radiocomplexes in healthy mice; assay type: in vivo
Method: We performed a biodistribution study of the four [^111In]In-radiocomplexes in healthy mice to determine the clearance rate from systemic blood circulation and the tissue/organ distribution over time. […] The urinary tract was identified as the main excretory pathway since the highest % I.D./g values were found in the kidneys for all the radiocomplexes, associated to rapid radioactivity excretion both at 15 min and 1 h p.i. […] page 9: from whole animal body. Blood samples were taken by cardiac puncture at sacrifice. […] The animals were kept under […] volume of approximate 390 ± 190 mm3. […] […] carried out on groups of 8 mice (n = 4). […] The animals were weighed and dissected.

SMILES: CC(C)C[C@H](NC(=O)C[C@H](O)[C@H](CC(C)C)NC(=O)[C@H](Cc1c[nH]cn1)NC(=O)CNC(=O)[C@@H](NC(=O)[C@H](C)NC(=O)[C@H](Cc1c[nH]c2ccccc12)NC(=O)[C@H](CCC(N)=O)NC(=O)[C@@H](Cc1ccccc1)NC(=O)CCOCCOCCOCCOCCNC(=O)OC1CCCC2=CNN=C(c3ccc(CNC(=O)CN4CCN(CC(=O)O)CCN(CC(=O)O)CCN(CC(=O)O)CC4)cc3)C2CC1)C(C)C)C(N)=O (stereo partly shown) [[90Y]Y-DOTA-Tz-TCO-PEG4-AR, metal not drawn]
- tissue uptake at 0.25 h (in vivo [1]; blood): 14.9 ± 3.89 %ID/g
- tissue uptake at 1 h (in vivo [1]; blood): 2.65 ± 0.65 %ID/g
- tissue uptake at 0.25 h (in vivo [1]; bone): 3.15 ± 1.87 %ID/g
- tissue uptake at 1 h (in vivo [1]; bone): 0.7 ± 0.29 %ID/g
- tissue uptake at 0.25 h (in vivo [1]; heart): 3.55 ± 0.62 %ID/g
- tissue uptake at 1 h (in vivo [1]; heart): 0.61 ± 0.27 %ID/g
- tissue uptake at 0.25 h (in vivo [1]; kidneys): 20.5 ± 7.97 %ID/g
- tissue uptake at 1 h (in vivo [1]; kidneys): 2.94 ± 0.44 %ID/g
- tissue uptake at 0.25 h (in vivo [1]; large intestine): 3.98 ± 0.68 %ID/g
- tissue uptake at 1 h (in vivo [1]; large intestine): 0.67 ± 0.19 %ID/g
- tissue uptake at 0.25 h (in vivo [1]; liver): 7.35 ± 3.27 %ID/g
- tissue uptake at 1 h (in vivo [1]; liver): 0.82 ± 0.1 %ID/g
- tissue uptake at 0.25 h (in vivo [1]; lung): 7.48 ± 1.92 %ID/g
- tissue uptake at 1 h (in vivo [1]; lung): 1.57 ± 0.63 %ID/g
- tissue uptake at 0.25 h (in vivo [1]; muscle): 2.36 ± 0.33 %ID/g
- tissue uptake at 1 h (in vivo [1]; muscle): 0.41 ± 0.12 %ID/g
- tissue uptake at 0.25 h (in vivo [1]; pancreas): 32 ± 3.86 %ID/g
- tissue uptake at 1 h (in vivo [1]; pancreas): 14 ± 1.99 %ID/g
- tissue uptake at 0.25 h (in vivo [1]; prostate): 26.3 ± 18 %ID/g
- tissue uptake at 1 h (in vivo [1]; prostate): 3.48 ± 3.63 %ID/g
- tissue uptake at 0.25 h (in vivo [1]; salivary gland): 3.69 ± 1.39 %ID/g
- tissue uptake at 1 h (in vivo [1]; salivary gland): 0.6 ± 0.18 %ID/g
- tissue uptake at 0.25 h (in vivo [1]; small intestine): 2.74 ± 0.28 %ID/g
- tissue uptake at 1 h (in vivo [1]; small intestine): 0.99 ± 0.32 %ID/g
- tissue uptake at 0.25 h (in vivo [1]; spleen): 4.03 ± 2.21 %ID/g
- tissue uptake at 1 h (in vivo [1]; spleen): 1.08 ± 0.39 %ID/g
- tissue uptake at 0.25 h (in vivo [1]; stomach): 4.72 ± 0.38 %ID/g
- tissue uptake at 1 h (in vivo [1]; stomach): 1.95 ± 0.39 %ID/g
- tissue uptake at 0.25 h (in vivo [1]; thyroid): 6.57 ± 3.95 %ID/g
- tissue uptake at 1 h (in vivo [1]; thyroid): 0.99 ± 0.5 %ID/g
- tissue uptake at 0.25 h (in vivo [1]; tumour): 6.32 ± 1.28 %ID/g
- tissue uptake at 1 h (in vivo [1]; tumour): 2.26 ± 0.93 %ID/g
- radiochemical purity after incubation in HS (human serum, 37 °C, 6 days, ITLC (citrate buffer pH 5.5, 0.1 M)): above 99%
- stability of the preparation after radiolabelling (room temperature, HPLC): stable up to 24 hours

SMILES: CC(C)C[C@H](NC(=O)C[C@H](O)[C@H](CC(C)C)NC(=O)[C@H](Cc1c[nH]cn1)NC(=O)CNC(=O)[C@@H](NC(=O)[C@H](C)NC(=O)[C@H](Cc1c[nH]c2ccccc12)NC(=O)[C@H](CCC(N)=O)NC(=O)[C@@H](Cc1ccccc1)NC(=O)CCOCCOCCOCCOCCNC(=O)OC1CCCC2=CNN=C(c3ccc(CNC(=O)CN4CCN(CC(=O)O)CCN(CC(=O)O)CCN(CC(=O)O)CC4)cc3)C2CC1)C(C)C)C(N)=O (stereo partly shown) [[111In]In-DOTA-Tz-TCO-PEG4-AR, metal not drawn]
- tissue uptake at 1 h (in vivo [2]; blood): 1.2 ± 0.4 %ID/g
- tissue uptake at 1 h (in vivo [2]; bone): 0.5 ± 0.1 %ID/g
- tissue uptake at 1 h (in vivo [2]; heart): 0.5 ± 0.3 %ID/g
- tissue uptake at 1 h (in vivo [2]; intestine): 1.09 ± 0.08 %ID/g
- tissue uptake at 1 h (in vivo [2]; kidney): 3.7 ± 1.1 %ID/g
- tissue uptake at 1 h (in vivo [2]; liver): 0.74 ± 0.06 %ID/g
- tissue uptake at 1 h (in vivo [2]; lung): 0.7 ± 0.2 %ID/g
- tissue uptake at 1 h (in vivo [2]; muscle): 0.3 ± 0.11 %ID/g
- tissue uptake at 1 h (in vivo [2]; spleen): 0.4 ± 0.1 %ID/g
- tissue uptake at 1 h (in vivo [2]; stomach): 0.9 ± 0.2 %ID/g
- tissue uptake at 1 h (in vivo [2]; tumour): 2.5 ± 0.7 %ID/g
- stability in CCM (cell culture media, 37 °C, up to 24 hours): excellent stabilities in CCM, with no degradation issues

SMILES: O=C([O-])CN1CCN(CC(=O)[O-])CCN(C(CCC(=O)NCCOCCOCCOCCOCCOCCOCCOCCOCCOCCOCCOCCNC(=O)CCCC(=O)NCc2ccc(-c3nncnn3)cc2)C(=O)[O-])CCN(CC(=O)[O-])CC1.[111In+3] (stereo not shown) [[111In]In-DOTAGA-PEG-Tz]
- Biodistribution: Blood ([3]; 15 min p.i.): 3.7 ± 0.6 % I.D./g
- Biodistribution: Bone ([3]; 15 min p.i.): 0.8 ± 0.2 % I.D./g
- Biodistribution: Heart ([3]; 15 min p.i.): 1.2 ± 0.6 % I.D./g
- Biodistribution: Intestine ([3]; 15 min p.i.): 0.31 ± 0.05 % I.D./g
- Biodistribution: Kidney ([3]; 15 min p.i.): 4.8 ± 0.7 % I.D./g
- Biodistribution: Liver ([3]; 15 min p.i.): 0.8 ± 0.1 % I.D./g
- Biodistribution: Lung ([3]; 15 min p.i.): 1.4 ± 0.2 % I.D./g
- Biodistribution: Muscle ([3]; 15 min p.i.): 0.86 ± 0.07 % I.D./g
- Biodistribution: Pancreas ([3]; 15 min p.i.): 0.53 ± 0.05 % I.D./g
- Biodistribution: Spleen ([3]; 15 min p.i.): 0.6 ± 0.2 % I.D./g
- Biodistribution: Stomach ([3]; 15 min p.i.): 1.0 ± 0.5 % I.D./g
- Excretion ([3]; 15 min p.i.): 62.7 ± 2.6 % I.D.
- Biodistribution: Blood ([3]; 1 h p.i.): 0.7 ± 0.4 % I.D./g
- Biodistribution: Bone ([3]; 1 h p.i.): 0.17 ± 0.09 % I.D./g
- Biodistribution: Heart ([3]; 1 h p.i.): 0.13 ± 0.08 % I.D./g
- Biodistribution: Intestine ([3]; 1 h p.i.): 0.4 ± 0.2 % I.D./g
- Biodistribution: Kidney ([3]; 1 h p.i.): 2.2 ± 0.6 % I.D./g
- Biodistribution: Liver ([3]; 1 h p.i.): 0.3 ± 0.2 % I.D./g
- Biodistribution: Lung ([3]; 1 h p.i.): 0.3 ± 0.2 % I.D./g
- Biodistribution: Muscle ([3]; 1 h p.i.): 0.2 ± 0.1 % I.D./g
- Biodistribution: Pancreas ([3]; 1 h p.i.): 0.12 ± 0.07 % I.D./g
- Biodistribution: Spleen ([3]; 1 h p.i.): 0.11 ± 0.05 % I.D./g
- Biodistribution: Stomach ([3]; 1 h p.i.): 1.1 ± 0.8 % I.D./g
- Excretion ([3]; 1 h p.i.): 87.1 ± 6.9 % I.D.
